US8058306B2, “Phenyl pyrrole aminoguanidine derivatives” (Action Pharma A/S, priority 2006, dated 2011)
Where “and” joins values, the source holds several entries; their conditions need not be identical. Equal values may be shown once. Entries after “also recorded” stand apart in the source; their conditions may differ. Read-outs that look alike come from different tables or passages of the source.

Assay: Plasma kinetics in rat following intravenous and oral administration;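 on AUC0-∞: parameter is AUC from zero to infinity in ng·h/mL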
Assay type: in vivo, Sprague Dawley rats
Settings: for t1/2: Table XIV; for concentration at 0.05 h / concentration at 0.1 h / concentration at 0.25 h / concentration at 0.75 h / concentration at 1.5 h / concentration at 2.5 h / concentration at 4 h / concentration at 6 h / concentration at 8 h / concentration at 24 h: single intravenous 10 mg/kg
Protocol: This study determined the intravenous pharmacokinetics and oral bioavailability of compound 1 of the invention (see FIG. 1A, structure no. 1), compound 2 of the invention (see FIG. 1D, structure no. 19) and compound 3 of the invention (see FIG. 1I, structure no. 53) following administration to Sprague Dawley rats at a dose level of 10 mg/kg.
Six groups of 3 male rats received either a single intravenous or single oral administration of compound 1, 2 or 3 of the invention at a dose level of 10 mg/kg. Blood samples were obtained at various times after dosing. Plasma samples were analysed for unchanged test item using a suitable LC-MS/MS method. Pharmacokinetic parameters were estimated from individual plasma concentrations.
Eighteen male rats each received either a single intravenous or a single oral administration of either compound 1, 2 or 3 at a dose level of 10 mg/kg. The formulation was orally administered to each animal by gastric gavage and intravenously administered to each animal via a tail vein. The dose was administered at a dose volume of 5 mL/kg. The formulations were administered to each animal according to the details in the following table:
Blood samples (ca 0.3 mL) were removed from the femoral vein of each animal into tubes containing lithium heparin as anticoagulant.
Blood samples were collected from 3 rats at the following times after dose administration: • 3, 6, 15, 45 min and 1.5, 2.5, 4, 6, 8, 24 h post dose. Oral Administration
Blood samples were collected from 3 rats at the following times after dose administration: • 5, 15, 45 min and 1.5, 2.5, 4, 6, 8, 24 h post dose. Processing of Blood Samples
Pharmacokinetic parameters of compound 1, 2 and 3 were derived by non-compartmental analysis using WinNonLin Pro version 5.0.1 (Pharsight 2005). The following parameters were derived, where appropriate, from the individual plasma concentration versus time profiles:
• F % The absolute oral bioavailability calculated as [AUC0-t (oral)*Dose(iv)/AUC0-t (iv)*Dose (oral)]*100 based on mean values derived after oral and intravenous administration Consideration was given to the estimation of λz and corresponding t1/2 values. Three or more points are required within the terminal phase for λz and t1/2 to be estimated. The following additional variables were tabulated to aid identification of potentially unreliable estimates of t1/2 and AUC:
Pharmacokinetic parameters were reported as geometric mean except Tmax which was reported as the median. Geometric coefficient of variation was calculated as: […]
Actual sampling times were used for all calculations of pharmacokinetic parameters. Plasma concentrations that were below the limit of quantification were taken as zero for the pharmacokinetic analysis.

[1] = intravenous 10 mg/kg, male rats, individual animals, acetate, 10 mg/kg
[2] = male, Sprague Dawley, rat, plasma, iv, 10 mg/kg, male rats, individual animals, read-out: Sample Concentration in plasma
[3] = male, Sprague Dawley, rat, plasma, iv, 10 mg/kg, male rats, mean of 3, read-out: Mean Concentration in plasma
[4] = male, Sprague Dawley, rat, plasma, iv, 10 mg/kg, male rats, individual animals, LLOQ 2.50, read-out: Sample Concentration in plasma
[5] = male, Sprague Dawley, rat, plasma, iv, 10 mg/kg, male rats, mean, read-out: Mean Concentration in plasma

For N=C(N)NN=CC=Cc1cccn1-c1ccccc1Br [Compound 3, [1-(2-bromophenyl)-1H-pyrrol-2-yl-allylideneamino]guanidinium acetate], which bioavailability (Sprague Dawley, rat, plasma, 10 mg/kg oral vs intravenous, male rats, from mean AUC0-t, read-out: Mean absolute oral bioavailability) is on record?
The bioavailability was 20.6%.

What about the t1/2 (intravenous 10 mg/kg, male rats, Arithmetic Mean) of the same compound?
Its t1/2 is 3.15 h.

What about the t1/2 (intravenous 10 mg/kg, male rats, Geometric mean) of the same compound?
Its t1/2 is 3.14 h.

What about the t1/2 (intravenous 10 mg/kg, male rats, Median) of the same compound?
Its t1/2 is 3.26 h.

What about the t1/2 [1] of the same compound?
Its t1/2 is 3.26 h and 3.46 h and 2.74 h.

What about the “Between-animal variability in systemic exposure, coefficient of variation (CV) of AUC0-t” value (intravenous 10 mg/kg, male rats) of the same compound?
Its value is “less than 30%”.

What about the “AUC0-∞” value [1] of the same compound?
Its value is 1911 ng·h/mL and 2504 ng·h/mL.

And the AUC(0-t) [1]?
Its AUC(0-t) is 1896 ng·h/mL and 2258 ng·h/mL.

And the C0 [1]?
The C0 was 9463 ng/mL and 4924 ng/mL.

And the CL [1]?
Its CL is 90.3 mL/min/kg and 68.25 mL/min/kg.

And the MRT [1]?
The MRT was 2.53 h.

And the Vss [1]?
The Vss was 13.694 L/kg and 13.225 L/kg.

What about the “Systemic clearance (in words)” value (intravenous 10 mg/kg, rats) of the same compound?
Its value is “high”.

What about the “volume of distribution compared with total body water (in words)” value (intravenous 10 mg/kg, rats, total body water 668 mL/kg, acetate, 10 mg/kg) of the same compound?
The value was “exceeded the total body water; also recorded: markedly greater than that of the total body water”.

What about the “systemic plasma clearance (CL) compared with hepatic blood flow (in words)” value (intravenous 10 mg/kg, hepatic blood flow 3312 mL/h/kg) of the same compound?
The value was “greater than hepatic blood flow”.

And the AUC(0-inf) (male, Sprague Dawley, rat, plasma, iv, 10 mg/kg, intravenous 10 mg/kg, male rats, Arithmetic Mean)?
The AUC(0-inf) was 2500 ng·h/mL.

And the AUC(0-t) (male, Sprague Dawley, rat, plasma, iv, 10 mg/kg, intravenous 10 mg/kg, male rats, Arithmetic Mean, read-out: AUC0-t)?
The AUC(0-t) was 2410 ng·h/mL.

And the C0 (male, Sprague Dawley, rat, plasma, iv, 10 mg/kg, intravenous 10 mg/kg, male rats, Arithmetic Mean, read-out: C0)?
Its C0 is 6630 ng/mL.

And the clearance (male, Sprague Dawley, rat, plasma, iv, 10 mg/kg, intravenous 10 mg/kg, male rats, Arithmetic Mean, read-out: CL (converted))?
Its clearance is 71.3 mL/min/kg.

What about the MRT (male, Sprague Dawley, rat, plasma, iv, 10 mg/kg, intravenous 10 mg/kg, male rats, Arithmetic Mean, read-out: MRT) of the same compound?
The MRT was 3.24 h.

What about the Vd (male, Sprague Dawley, rat, plasma, iv, 10 mg/kg, intravenous 10 mg/kg, male rats, Arithmetic Mean, read-out: Vss) of the same compound?
Its Vd is 13.4 L/kg.

And the AUC(0-inf) (male, Sprague Dawley, rat, plasma, iv, 10 mg/kg, intravenous 10 mg/kg, male rats, Geometric mean)?
The AUC(0-inf) was 2460 ng·h/mL.

And the AUC(0-t) (male, Sprague Dawley, rat, plasma, iv, 10 mg/kg, intravenous 10 mg/kg, male rats, Geometric mean, read-out: AUC0-t)?
Its AUC(0-t) is 2360 ng·h/mL.

And the C0 (male, Sprague Dawley, rat, plasma, iv, 10 mg/kg, intravenous 10 mg/kg, male rats, Geometric mean, read-out: C0)?
The C0 was 6360 ng/mL.

And the clearance (male, Sprague Dawley, rat, plasma, iv, 10 mg/kg, intravenous 10 mg/kg, male rats, Geometric mean, read-out: CL (systemic plasma clearance) (converted))?
The clearance was 69.9 mL/min/kg.

What about the MRT (male, Sprague Dawley, rat, plasma, iv, 10 mg/kg, intravenous 10 mg/kg, male rats, Geometric mean, read-out: MRT) of the same compound?
Its MRT is 3.19 h.

And the Vd (male, Sprague Dawley, rat, plasma, iv, 10 mg/kg, intravenous 10 mg/kg, male rats, Geometric mean, read-out: Vss (mean apparent volume of distribution))?
Its Vd is 13.4 L/kg.

And the half-life (male, Sprague Dawley, rat, plasma, iv, 10 mg/kg, intravenous 10 mg/kg, male rats, Geometric mean, read-out: t1/2 (mean apparent terminal half-life) (converted))?
Its half-life is 3.14 h.

And the AUC(0-inf) (male, Sprague Dawley, rat, plasma, iv, 10 mg/kg, intravenous 10 mg/kg, male rats, Median)?
Its AUC(0-inf) is 2500 ng·h/mL.

And the AUC(0-t) (male, Sprague Dawley, rat, plasma, iv, 10 mg/kg, intravenous 10 mg/kg, male rats, Median, read-out: AUC0-t)?
Its AUC(0-t) is 2260 ng·h/mL.

And the C0 (male, Sprague Dawley, rat, plasma, iv, 10 mg/kg, intravenous 10 mg/kg, male rats, Median, read-out: C0)?
Its C0 is 5520 ng/mL.

What about the clearance (male, Sprague Dawley, rat, plasma, iv, 10 mg/kg, intravenous 10 mg/kg, male rats, Median, read-out: CL (converted)) of the same compound?
Its clearance is 68.2 mL/min/kg.

And the MRT (male, Sprague Dawley, rat, plasma, iv, 10 mg/kg, intravenous 10 mg/kg, male rats, Median, read-out: MRT)?
The MRT was 3.23 h.

And the Vd (male, Sprague Dawley, rat, plasma, iv, 10 mg/kg, intravenous 10 mg/kg, male rats, Median, read-out: Vss)?
The Vd was 13.2 L/kg.

And the AUC(0-inf) (male, Sprague Dawley, rat, plasma, iv, 10 mg/kg, intravenous 10 mg/kg, male rats, individual animals)?
The AUC(0-inf) was 3090 ng·h/mL.

And the AUC(0-t) (male, Sprague Dawley, rat, plasma, iv, 10 mg/kg, intravenous 10 mg/kg, male rats, individual animals, read-out: AUC0-t)?
The AUC(0-t) was 3080 ng·h/mL.

And the C0 (male, Sprague Dawley, rat, plasma, iv, 10 mg/kg, intravenous 10 mg/kg, male rats, individual animals, read-out: C0)?
The C0 was 5520 ng/mL.

And the clearance (male, Sprague Dawley, rat, plasma, iv, 10 mg/kg, intravenous 10 mg/kg, male rats, individual animals, read-out: CL (converted))?
Its clearance is 55.4 mL/min/kg.

And the MRT (male, Sprague Dawley, rat, plasma, iv, 10 mg/kg, intravenous 10 mg/kg, male rats, individual animals, read-out: MRT)?
The MRT was 3.96 h.

What about the Vd (male, Sprague Dawley, rat, plasma, iv, 10 mg/kg, intravenous 10 mg/kg, male rats, individual animals, read-out: Vss) of the same compound?
The Vd was 13.2 L/kg.

And the concentration at 0.05 h (male, Sprague Dawley, rat, plasma, iv, 10 mg/kg, male rats, 0.05 h (3 min), mean of 3, read-out: Mean Concentration in plasma)?
Its concentration at 0.05 h is 3170 ng/mL.

And the concentration at 0.05 h (male, Sprague Dawley, rat, plasma, iv, 10 mg/kg, male rats, 0.05 h, individual animals, read-out: Sample Concentration in plasma)?
The concentration at 0.05 h was 2530 ng/mL.

What about the concentration at 0.1 h [2] of the same compound?
Its concentration at 0.1 h is 978 ng/mL.

What about the concentration at 0.1 h [3] of the same compound?
Its concentration at 0.1 h is 1100 ng/mL.

What about the concentration at 0.25 h [2] of the same compound?
Its concentration at 0.25 h is 481 ng/mL.

What about the concentration at 0.25 h [3] of the same compound?
Its concentration at 0.25 h is 780 ng/mL.

And the concentration at 0.75 h [2]?
Its concentration at 0.75 h is 404 ng/mL.

What about the concentration at 0.75 h [3] of the same compound?
The concentration at 0.75 h was 465 ng/mL.

What about the concentration at 1.5 h [2] of the same compound?
Its concentration at 1.5 h is 274 ng/mL.

What about the concentration at 1.5 h [3] of the same compound?
Its concentration at 1.5 h is 335 ng/mL.

What about the concentration at 2.5 h [2] of the same compound?
Its concentration at 2.5 h is 240 ng/mL.

What about the concentration at 2.5 h [3] of the same compound?
The concentration at 2.5 h was 251 ng/mL.

What about the concentration at 4 h [2] of the same compound?
The concentration at 4 h was 179 ng/mL.

And the concentration at 4 h [3]?
Its concentration at 4 h is 192 ng/mL.

And the concentration at 6 h [2]?
The concentration at 6 h was 103 ng/mL.

And the concentration at 6 h [3]?
The concentration at 6 h was 119 ng/mL.

What about the concentration at 8 h [4] of the same compound?
The concentration at 8 h was 62.3 ng/mL.

And the concentration at 8 h [5]?
The concentration at 8 h was 81.2 ng/mL.

And the concentration at 24 h [4]?
Its concentration at 24 h is 3.08 ng/mL.

And the concentration at 24 h [5]?
The concentration at 24 h was 2.82 ng/mL.

What about the AUC(0-inf) (male, Sprague Dawley, rat, plasma, po, 10 mg/kg, oral 10 mg/kg, male rats, Arithmetic Mean) of the same compound?
Its AUC(0-inf) is 838 ng·h/mL.

And the AUC(0-t) (male, Sprague Dawley, rat, plasma, po, 10 mg/kg, oral 10 mg/kg, male rats, Arithmetic Mean, read-out: AUC0-t)?
Its AUC(0-t) is 518 ng·h/mL.

What about the Cmax (male, Sprague Dawley, rat, plasma, po, 10 mg/kg, oral 10 mg/kg, male rats, Arithmetic Mean, read-out: Cmax) of the same compound?
The Cmax was 110 ng/mL.

What about the MRT (male, Sprague Dawley, rat, plasma, po, 10 mg/kg, oral 10 mg/kg, male rats, Arithmetic Mean, read-out: MRT) of the same compound?
The MRT was 6.83 h.

What about the half-life (male, Sprague Dawley, rat, plasma, po, 10 mg/kg, oral 10 mg/kg, male rats, Arithmetic Mean, read-out: t1/2 (converted)) of the same compound?
The half-life was 3.3 h.

What about the Tmax (male, Sprague Dawley, rat, plasma, po, 10 mg/kg, oral 10 mg/kg, male rats, Arithmetic Mean, read-out: tmax) of the same compound?
Its Tmax is 4.67 h.
